From patent publication US10689354B2, “Aminoazole derivative” (Teijin Pharma Limited, priority 2015, dated 2020)

Assays:
human androgen receptor = target: T1, human androgen receptor (Homo sapiens, UniProt P10275); experiment: Reporter assay of an androgen receptor responsive sequence (luciferase, transiently transfected HEK293 cells); type: cell-based; details: 24 hours incubation, relative to activity of 100 nM DHT, read-out: AR transcriptive activity (pEC50) (converted)
T1 construct: expressed in transfected cells; host or cells: HEK293
T1 sequence (P10275 1-920): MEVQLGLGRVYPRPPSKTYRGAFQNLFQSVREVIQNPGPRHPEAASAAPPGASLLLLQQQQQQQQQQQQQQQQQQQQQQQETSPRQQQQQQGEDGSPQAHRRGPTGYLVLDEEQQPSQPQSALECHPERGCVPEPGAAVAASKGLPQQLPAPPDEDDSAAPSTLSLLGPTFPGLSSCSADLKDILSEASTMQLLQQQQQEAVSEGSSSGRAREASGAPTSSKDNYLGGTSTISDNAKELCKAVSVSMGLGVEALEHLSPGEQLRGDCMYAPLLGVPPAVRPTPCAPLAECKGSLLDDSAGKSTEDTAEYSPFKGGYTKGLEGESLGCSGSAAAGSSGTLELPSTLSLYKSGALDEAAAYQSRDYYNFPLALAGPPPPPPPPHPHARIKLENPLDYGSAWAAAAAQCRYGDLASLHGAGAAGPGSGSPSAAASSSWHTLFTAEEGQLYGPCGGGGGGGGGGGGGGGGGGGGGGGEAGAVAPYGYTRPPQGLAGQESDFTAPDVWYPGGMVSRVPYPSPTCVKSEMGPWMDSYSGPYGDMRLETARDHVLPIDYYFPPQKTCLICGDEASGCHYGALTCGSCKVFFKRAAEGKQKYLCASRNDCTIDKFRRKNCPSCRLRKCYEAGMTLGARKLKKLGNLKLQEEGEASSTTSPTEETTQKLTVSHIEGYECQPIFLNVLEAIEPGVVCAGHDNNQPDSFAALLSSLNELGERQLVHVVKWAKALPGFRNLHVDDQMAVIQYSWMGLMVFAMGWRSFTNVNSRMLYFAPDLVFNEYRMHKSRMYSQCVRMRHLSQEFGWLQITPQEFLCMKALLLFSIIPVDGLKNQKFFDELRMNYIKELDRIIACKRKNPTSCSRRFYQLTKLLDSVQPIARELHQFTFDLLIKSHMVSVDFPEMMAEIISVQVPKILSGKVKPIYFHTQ
In short: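 HEK293 cells transiently transfected for 3 h with ARE-firefly luciferase, full-length human AR and TK-Renilla plasmids, then exposed to compound for 24 h at 37 °C in 5% charcoal-treated FBS/DMEM. Dual-Glo luminescence read; pEC50 from 4-parameter fit relative to 100 nM DHT.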

[1] = target: T2, androgen receptor (AR-LBD) (Rattus norvegicus, UniProt P15207); experiment: Evaluation of androgen receptor affinity (PolarScreen Androgen Receptor Competitor Assay Kit, Red; fluorescence polarization); details: 22° C. for 5 hours, relative to binding rate of 1 μM DHT, read-out: AR affinity (pEC50) (converted)
T2 construct: 5 μL of 2×AR-LBD/Fluoromone AL Red Complex contained in the kit; purchased Invitrogen
T2 sequence (P15207 651-882 limits assumed): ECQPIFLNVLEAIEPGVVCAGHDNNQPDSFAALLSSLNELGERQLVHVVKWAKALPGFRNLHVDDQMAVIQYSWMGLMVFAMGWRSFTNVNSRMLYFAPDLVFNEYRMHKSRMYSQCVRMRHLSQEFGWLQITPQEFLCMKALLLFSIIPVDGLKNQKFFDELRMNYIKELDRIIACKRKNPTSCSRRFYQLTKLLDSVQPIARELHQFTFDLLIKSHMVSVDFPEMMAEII
In short: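 pEC50 values reflect tracer displacement from AR-LBD (Fluoromone AL Red complex) measured by fluorescence polarization after 5 h at 22° C, normalized to 1 μM DHT and fitted with a 4-parameter model.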

`Cc1sc(N(CCc2ccsc2)c2ccc(C#N)cc2)nc1C(=O)NS(C)(=O)=O` [Compound 132, 2-[4-cyano-N-[2-(3-thienyl)ethyl]anilino]-5-methyl-N-methylsulfonyl-thiazole-4-carboxamide] gave an EC50 (human androgen receptor) of 1580 nM and an EC50 [1] of 316 nM.
For `COCCCS(=O)(=O)NC(=O)c1nc(N(CCc2ccc(C#N)cc2)Cc2ccc(F)cc2)oc1C` [Compound 556, 2-[2-(4-cyanophenyl)ethyl-[(4-fluorophenyl)methyl]amino]-N-(3-methoxypropylsulfonyl)-5-methyl-oxazole-4-carboxamide], the EC50 (human androgen receptor) was 1260 nM and the EC50 [1] was 100 nM.
`COc1cc(Cl)ccc1CN(c1ccc(C#N)cc1)c1nc(C(=O)NS(C)(=O)=O)c(C)s1` [Compound 118, 2-[N-[(4-chloro-2-methoxy-phenyl)methyl]-4-cyano-anilino]-5-methyl-N-methylsulfonyl-thiazole-4-carboxamide] was tested, and the EC50 (human androgen receptor) was 398 nM and the EC50 [1] was 50.1 nM.
Work on `Cc1sc(N(Cc2ccc(F)cc2F)c2ccc(C#N)cc2)nc1C(=O)NS(C)(=O)=O` [Compound 104, 2-[4-cyano-N-[(2,4-difluorophenyl)methyl]anilino]-5-methyl-N-methylsulfonyl-thiazole-4-carboxamide] yielded an EC50 (human androgen receptor) of 126 nM and an EC50 [1] of 50.1 nM.
`Cc1sc(N(Cc2ccc(OCC3CCOCC3)cc2)c2ccc(C#N)cc2)nc1C(=O)NS(C)(=O)=O` [Compound 576, 2-[4-cyano-N-[[4-(tetrahydropyran-4-ylmethoxy)phenyl]methyl]anilino]-5-methyl-N-methylsulfonyl-thiazole-4-carboxamide] was tested, and the EC50 (human androgen receptor) was 1260 nM and the EC50 [1] was 63.1 nM.
Work on `Cc1sc(N(CCc2ccc(C#N)cc2)Cc2ccc(Cl)cc2)nc1C(=O)NS(=O)(=O)Cc1cccnc1` [Compound 321, 2-[(4-chlorophenyl)methyl-[2-(4-cyanophenyl)ethyl]amino]-5-methyl-N-(3-pyridylmethylsulfonyl)thiazole-4-carboxamide] yielded an EC50 (human androgen receptor) of 100 nM and an EC50 [1] of 20 nM.
`Cc1sc(N(Cc2ccc(-c3ccc(F)cc3)nc2)c2ccc(C#N)cc2)nc1C(=O)NS(C)(=O)=O` [Compound 592, 2-[4-cyano-N-[[6-(4-fluorophenyl)-3-pyridyl]methyl]anilino]-5-methyl-N-methylsulfonyl-thiazole-4-carboxamide] showed an EC50 (human androgen receptor) of 794 nM and an EC50 [1] of 100 nM.
With `Cc1sc(N(Cc2cc3ccccc3o2)c2ccc(C#N)cc2)nc1C(=O)NS(C)(=O)=O` [Compound 479, 2-[N-(benzofuran-2-ylmethyl)-4-cyano-anilino]-5-methyl-N-methylsulfonyl-thiazole-4-carboxamide] the EC50 (human androgen receptor) was 63.1 nM and the EC50 [1] was 63.1 nM.
For `Cc1sc(N(CCc2ccccc2Cl)Cc2ccccc2)nc1C(=O)NS(C)(=O)=O` [Example 303, 2-[benzyl-[2-(2-chlorophenyl)ethyl]amino]-5-methyl-N-methylsulfonyl-thiazole-4-carboxamide], the EC50 (human androgen receptor) was over 10000 nM and the EC50 [1] was 126 nM.
`Cc1sc(N(CCc2ccc(Cl)cc2)Cc2cccc(Cl)c2)nc1C(=O)NS(C)(=O)=O` [Compound 144, 2-[2-(4-chlorophenyl)ethyl-[(3-chlorophenyl)methyl]amino]-5-methyl-N-methylsulfonyl-thiazole-4-carboxamide] gave an EC50 (human androgen receptor) of 63.1 nM and an EC50 [1] of 25.1 nM.
With `CS(=O)(=O)NC(=O)c1nc(N(Cc2cccc(OC(F)F)c2)c2ccc(C#N)cc2)sc1Cl` [Example 276, 5-chloro-2-[4-cyano-N-[[3-(difluoromethoxy)phenyl]methyl]anilino]-N-methylsulfonyl-thiazole-4-carboxamide] the EC50 (human androgen receptor) was 126 nM and the EC50 [1] was 50.1 nM.
Work on `Cc1sc(N(CCCOc2ccccc2)c2ccc(C#N)cc2)nc1C(=O)NS(C)(=O)=O` [Compound 368, 2-[4-cyano-N-(3-phenoxypropyl)anilino]-5-methyl-N-methylsulfonyl-thiazole-4-carboxamide] yielded an EC50 (human androgen receptor) of over 10000 nM and an EC50 [1] of 100 nM.
For `Cc1sc(N(CCC2CCCCC2)Cc2ccc(OC(F)(F)F)cc2)nc1C(=O)NS(=O)(=O)C(F)(F)F` [Compound 724, 2-[2-cyclohexylethyl-[[4-(trifluoromethoxy)phenyl]methyl]amino]-5-methyl-N-(trifluoromethylsulfonyl)thiazole-4-carboxamide], the EC50 (human androgen receptor) was over 10000 nM and the EC50 [1] was 501 nM.
`Cc1sc(N(CC2CC3CCC2C3)c2ccc(C#N)cc2)nc1C(=O)NS(C)(=O)=O` (centres unmarked) [Compound 447, 2-[4-cyano-N-(norbornan-2-ylmethyl)anilino]-5-methyl-N-methylsulfonyl-thiazole-4-carboxamide] gave an EC50 (human androgen receptor) of 2510 nM and an EC50 [1] of 50.1 nM.
Work on `CS(=O)(=O)NC(=O)c1nc(N(Cc2ccc(Br)cn2)c2ccc(C#N)cc2)sc1Br` [Compound 642, 5-bromo-2-[N-[(5-bromo-2-pyridyl)methyl]-4-cyano-anilino]-N-methylsulfonyl-thiazole-4-carboxamide] yielded an EC50 (human androgen receptor) of 50.1 nM and an EC50 [1] of 79.4 nM.
Compound `Cc1sc(N(CCC2CCCCC2)Cc2ccc(Cl)cc2)nc1C(=O)NS(=O)(=O)Cc1cccnc1` [Compound 325, 2-[(4-chlorophenyl)methyl-(2-cyclohexylethyl)amino]-5-methyl-N-(3-pyridylmethylsulfonyl)thiazole-4-carboxamide] has an EC50 (human androgen receptor) of 398 nM and an EC50 [1] of 31.6 nM.
In the case of `COCCCS(=O)(=O)NC(=O)c1nc(N(Cc2ccc(OC(F)F)cc2F)c2ccc(C#N)cc2)sc1C` [Compound 523, 2-[4-cyano-N-[[4-(difluoromethoxy)-2-fluoro-phenyl]methyl]anilino]-N-(3-methoxypropylsulfonyl)-5-methyl-thiazole-4-carboxamide], the EC50 (human androgen receptor) is reported as 398 nM and the EC50 [1] is reported as 31.6 nM.
`Cc1sc(N(Cc2ccccc2)c2ccc3ncccc3c2)nc1C(=O)NS(C)(=O)=O` [Compound 54, 2-[benzyl(6-quinolyl)amino]-5-methyl-N-methylsulfonyl-thiazole-4-carboxamide] gave an EC50 (human androgen receptor) of 1580 nM and an EC50 [1] of 398 nM.
With `Cc1sc(N(Cc2ccc(OCc3ccccc3)cc2)c2ccc(C#N)cc2)nc1C(=O)NS(C)(=O)=O` [Compound 393, 2-[N-[(4-benzyloxyphenyl)methyl]-4-cyano-anilino]-5-methyl-N-methylsulfonyl-thiazole-4-carboxamide] the EC50 (human androgen receptor) was 398 nM and the EC50 [1] was 31.6 nM.
`CS(=O)(=O)NC(=O)c1nc(N(Cc2ccc3occc3c2)c2ccc(C#N)cc2)sc1Cl` [Example 279, 2-[N-(benzofuran-5-ylmethyl)-4-cyano-anilino]-5-chloro-N-methylsulfonyl-thiazole-4-carboxamide] was tested, and the EC50 (human androgen receptor) was 50.1 nM and the EC50 [1] was 31.6 nM.
`Cc1sc(N(Cc2ccc(C(F)F)cc2)c2ccc(C#N)cc2)nc1C(=O)NS(C)(=O)=O` [Compound 94, 2-[4-cyano-N-[[4-(difluoromethyl)phenyl]methyl]anilino]-5-methyl-N-methylsulfonyl-thiazole-4-carboxamide] gave an EC50 (human androgen receptor) of 25.1 nM and an EC50 [1] of 39.8 nM.
Compound `CCOC(=O)CS(=O)(=O)NC(=O)c1nc(N(Cc2ccccc2)c2ccc(C#N)cc2)sc1C` [Compound 384, ethyl 2-[[2-(N-benzyl-4-cyano-anilino)-5-methyl-thiazole-4-carbonyl]sulfamoyl]acetate] has an EC50 (human androgen receptor) of 251 nM and an EC50 [1] of 39.8 nM.
`Cc1sc(N(Cc2cc3ccccc3cn2)c2ccc(C#N)cc2)nc1C(=O)NS(C)(=O)=O` [Compound 529, 2-[4-cyano-N-(3-isoquinolylmethyl)anilino]-5-methyl-N-methylsulfonyl-thiazole-4-carboxamide] gave an EC50 (human androgen receptor) of 316 nM and an EC50 [1] of 398 nM.
`Cc1sc(N(Cc2ccc(Br)cn2)c2ccc(C#N)cc2)nc1C(=O)NS(C)(=O)=O` [Compound 153, 2-[N-[(5-bromo-2-pyridyl)methyl]-4-cyano-anilino]-5-methyl-N-methylsulfonyl-thiazole-4-carboxamide] was tested, and the EC50 (human androgen receptor) was 50.1 nM and the EC50 [1] was 100 nM.
In the case of `COc1ccc(F)cc1CN(c1ccc(C#N)cc1)c1nc(C(=O)NS(C)(=O)=O)c(C)s1` [Compound 105, 2-[4-cyano-N-[(5-fluoro-2-methoxy-phenyl)methyl]anilino]-5-methyl-N-methylsulfonyl-thiazole-4-carboxamide], the EC50 (human androgen receptor) is reported as 316 nM and the EC50 [1] is reported as 126 nM.
